Reference: patent US8618154B2, “LXR modulators” (Bristol-Myers Squibb Company, priority 2009, dated 2013)
Like-named read-outs stand apart in the source and are kept apart here.

Tested on: ABCA1 gene expression
Experiment: Human whole blood assay (hWBA), ABCA1 mRNA induction
Format: cell-based
Settings: for Emax: read-out: hWBA hABCA1 L30 Max P (%)
Experimental: Human whole blood was collected in EDTA containing tubes and 0.5 mL aliquots were immediately mixed in a 96 well block with the appropriate serial dilution of test compound, in 0.5% DMSO. Compounds were incubated with blood at 37° C. with constant rocking for 4 hours. After incubation, cells were lysed in ABI Nucleic Acid Purification Lysis Solution (Applied Biosystems catalog #4305895) and frozen at −80° C. Following cell lysis, total RNA was purified using an ABI 6100 RNA prep station according to the protocol provided by the manufacturer. cDNAs were synthesized, and mRNAs were quantitated using SYBR-Green Quantitative PCR (Q-PCR) on an ABI Prism 7900HT Sequence Detection System and reagents from Quanta Bioscience Inc (Quanta Bioscience catalog #95047 and 95055).
The quantity of each mRNA was determined by the ΔΔCT method (Michael W. Pfaffl. A new mathematical model for relative quantification in real-time RT-PCR. Nucleic Acids Research, 2001, Vol. 29, No. 9 e45) and normalized to the quantity of two control mRNAs, i.e. ribosomal protein L-30 (L-30) and beta-2-microglobulin (B2M). The induction of ABCA1 and ABCG1 by test compound was graphed as a percent of the reference compound, 2-(4-(5-(5-cyano-1-(2,4-difluorobenzyl)-6-oxo-4-(trifluoromethyl)-1,6-dihydropyridin-2-yl)thiophen-2-yl)-3-methylphenyl)acetic acid, and potency (EC50) and activity (% MAX) were calculated by fitting a sigmoidal response curve as a function of log transformed compound concentration using XLFit software according to the equation y=A+((B−A)/(1+((C/x)^D))).

[1] = Homo sapiens, 4 h, percent of reference pan agonist (maximal activity defined as 100%)
[2] = human whole blood, 4 hours, ABCA1 mRNA normalized to L30, read-out: hWBA hABCA1 L30 EC50

| SMILES | Emax [1] | EC50 [2] | EC50 (Homo sapiens, 4 h, read-out: hWBA hABCA1 L30 EC50 (nM)) | Emax (Homo sapiens, 4 h) |
| --- | --- | --- | --- | --- |
| CC(C)(O)c1cn(-c2ccc(-c3cc(F)c(CO)c(S(C)(=O)=O)c3)cc2F)c(Cc2ccccc2C(F)(F)F)n1 [Example 12, 2-(1-(3,3′-difluoro-4′-(hydroxymethyl)-5′-(methylsulfonyl)biphenyl-4-yl)-2-(2-(trifluoromethyl)benzyl)-1H-imidazol-4-yl)propan-2-ol] | 32% | < 100 nM | – | – |
| CC(C)(O)c1cn(-c2ccc(-c3cc(F)c(CO)c(S(C)(=O)=O)c3)cc2Cl)c(C(C)(C)c2c(Cl)cccc2Cl)n1 [Example 3, 2-(1-(3-chloro-3′-fluoro-4′-(hydroxymethyl)-5′-(methylsulfonyl)biphenyl-4-yl)-2-(2-(2,6-dichlorophenyl)propan-2-yl)-1H-imidazol-4-yl)propan-2-ol] | 16% | < 100 nM | – | – |
| CC(C)(O)c1cn(-c2ccc(-c3cc(F)c(CO)c(S(C)(=O)=O)c3)cc2F)c(C(C)(C)c2ccccc2Cl)n1 [Example 6, 2-(2-(2-(2-Chloro-phenyl)propan-2-yl)-1-(3,3′-difluoro-4′-hydroxymethyl-5′-(methylsulfonyl)biphenyl-4-yl)-1H-imidazol-4-yl)-propan-2-ol] | 35% | < 100 nM | – | – |
| CC(C)(O)c1cn(-c2ccc(-c3cc(F)c(CO)c(S(C)(=O)=O)c3)cc2)c(Cc2ccc(Cl)cc2Cl)n1 [Example 15, 2-(2-(2,4-dichlorobenzyl)-1-(3′-fluoro-4′-(hydroxymethyl)-5′-(methylsulfonyl)biphenyl-4-yl)-1H-imidazol-4-yl)propan-2-ol] | 47% | < 100 nM | – | – |
| CC(C)(O)c1cn(-c2ccc(-c3cc(F)c(CO)c(S(C)(=O)=O)c3)cc2)c(C(C)(C)c2cccc(F)c2Cl)n1 [Example 4, 2-(2-(2-(2-chloro-3-fluorophenyl)propan-2-yl)-1-(3′-fluoro-4′-(hydroxymethyl)-5′-(methylsulfonyl)biphenyl-4-yl)-1H-imidazol-4-yl)propan-2-ol] | 34% | < 100 nM | – | – |
| Cc1cc(-c2cc(F)c(CO)c(S(C)(=O)=O)c2)ccc1-n1cc(C(C)(C)O)nc1C(C)(C)c1c(F)cccc1Cl [Example 2, 2-(2-(2-(2-chloro-6-fluorophenyl)propan-2-yl)-1-(3′-fluoro-4′-(hydroxymethyl)-3-methyl-5′-(methylsulfonyl)biphenyl-4-yl)-1H-imidazol-4-yl)propan-2-ol] | 18% | < 100 nM | – | – |
| Cc1ccccc1Cc1nc(C(C)(C)O)cn1-c1ccc(-c2cc(F)c(CO)c(S(C)(=O)=O)c2)cc1 [Example 17, 2-(1-(3′-fluoro-4′-(hydroxymethyl)-5′-(methylsulfonyl)biphenyl-4-yl)-2-(2-methylbenzyl)-1H-imidazol-4-yl)propan-2-ol] | 20% | < 100 nM | – | – |
| CC(C)(O)c1cn(-c2ccc(-c3cc(F)c(CO)c(S(C)(=O)=O)c3)cc2F)c(Cc2ccc(F)cc2Cl)n1 [Example 14, 2-(2-(2-chloro-4-fluorobenzyl)-1-(3,3′-difluoro-4′-(hydroxymethyl)-5′-(methylsulfonyl)biphenyl-4-yl)-1H-imidazol-4-yl)propan-2-ol] | 24% | < 100 nM | – | – |
| CC(C)(O)c1cn(-c2ccc(-c3cc(F)c(CO)c(S(C)(=O)=O)c3)cc2Cl)c(Cc2ccc(F)cc2Cl)n1 [Example 13, 2-(1-(3-chloro-3′-fluoro-4′-(hydroxymethyl)-5′-(methylsulfonyl)biphenyl-4-yl)-2-(2-chloro-4-fluorobenzyl)-1H-imidazol-4-yl)propan-2-ol] | 50% | < 100 nM | – | – |
| CC(C)(O)c1cn(-c2ccc(-c3cc(F)c(CO)c(S(C)(=O)=O)c3)cc2F)c(C(C)(C)c2ccccc2F)n1 [Example 8, 2-{1-(3,3′-Difluoro-4′-hydroxymethyl-5′-methanesulfonyl-biphenyl-4-yl)-2-[2-(2-fluorophenyl)propan-2-yl]-1H-imidazol-4-yl}-propan-2-ol] | 23% | < 100 nM | – | – |
| CC(C)(O)c1cn(-c2ccc(-c3cc(F)c(CO)c(S(C)(=O)=O)c3)cc2)c(Cc2cc(F)ccc2Cl)n1 [Example 19, 2-[2-(2-Chloro-5-fluoro-benzyl)-1-(3′-fluoro-4′-hydroxymethyl-5′-methanesulfonyl-biphenyl-4-yl)-1H-imidazol-4-yl]-propan-2-ol] | 35% | < 100 nM | – | – |
| CC(C)(O)c1cn(-c2ccc(-c3cc(F)c(CO)c(S(C)(=O)=O)c3)cc2)c(C(C)(C)c2c(Cl)cccc2Cl)n1 [Example 5, 2-(2-(2-(2,6-dichlorophenyl)propan-2-yl)-1-(3′-fluoro-4′-(hydroxymethyl)-5′-(methylsulfonyl)biphenyl-4-yl)-1H-imidazol-4-yl)propan-2-ol] | 43% | < 100 nM | – | – |
| CC(C)(O)c1cn(-c2ccc(-c3cc(F)c(CO)c(S(C)(=O)=O)c3)cc2F)c(Cc2ccccc2Cl)n1 [Example 20, 2-[2-(2-Chloro-benzyl)-1-(3,3′-difluoro-4′-hydroxymethyl-5′-methanesulfonyl-biphenyl-4-yl)-1H-imidazol-4-yl]-propan-2-ol] | 35% | < 100 nM | – | – |
| CC(C)(O)c1cn(-c2ccc(-c3cccc(S(C)(=O)=O)c3)cc2)c(C(C)(C)c2ccccc2Cl)n1 [Compound No. 19, Table 1, WO 2007/002563, reference compound] | 55% | > 1000 nM | – | – |
| CC(C)(O)c1cn(-c2ccc(-c3cc(F)c(CO)c(S(C)(=O)=O)c3)cc2F)c(C(C)(C)c2c(F)cccc2Cl)n1 [Example 7, 2-(2-(2-(2-chloro-6-fluorophenyl)propan-2-yl)-1-(3,3′-difluoro-4′-(hydroxymethyl)-5′-(methylsulfonyl)biphenyl-4-yl)-1H-imidazol-4-yl)propan-2-ol] | 33% | < 100 nM | – | – |
| CC(c1c(Cl)cccc1Cl)c1nc(C(C)(C)O)cn1-c1ccc(-c2cc(F)c(CO)c(S(C)(=O)=O)c2)cc1F (stereo not drawn) [Example 21, 2-{2-[1-(2,6-dichlorophenyl)ethyl]-1-[3,3′-difluoro-4′-(hydroxymethyl)-5′-(methylsulfonyl)biphenyl-4-yl]-1H-imidazol-4-yl}propan-2-ol] | – | – | < 100 nM | 17% |
| CC(C)(O)c1cn(-c2ccc(-c3cc(F)c(CO)c(S(C)(=O)=O)c3)cc2)c(C(C)(C)c2ccccc2F)n1 [Example 1, 2-(1-(3′-fluoro-4′-(hydroxymethyl)-5′-(methylsulfonyl)biphenyl-4-yl)-2-(2-(2-fluorophenyl)propan-2-yl)-1H-imidazol-4-yl)propan-2-ol] | 28% | < 100 nM | – | – |
| CC(C)(O)c1cn(-c2ccc(-c3cc(F)c(CO)c(S(C)(=O)=O)c3)cc2)c(Cc2c(Cl)cccc2Cl)n1 [Example 18, 2-(2-(2,6-dichlorobenzyl)-1-(3′-fluoro-4′-(hydroxymethyl)-5′-(methylsulfonyl)biphenyl-4-yl)-1H-imidazol-4-yl)propan-2-ol] | 51% | < 100 nM | – | – |
| CC(C)(O)c1cn(-c2ccc(-c3cc(F)c(CO)c(S(C)(=O)=O)c3)cc2F)c(C(C)(C)c2c(Cl)cccc2Cl)n1 [Example 9, 2-(2-(2-(2,6-dichlorophenyl)propan-2-yl)-1-(3,3′-difluoro-4′-(hydroxymethyl)-5′-(methylsulfonyl)biphenyl-4-yl)-1H-imidazol-4-yl)propan-2-ol] | 28% | < 100 nM | – | – |
| CC(C)(O)c1cn(-c2ccc(-c3cc(F)c(CO)c(S(C)(=O)=O)c3)cc2F)c(Cc2ccc(Cl)cc2Cl)n1 [Example 11, 2-(2-(2,4-dichlorobenzyl)-1-(3,3′-difluoro-4′-(hydroxymethyl)-5′-(methylsulfonyl)biphenyl-4-yl)-1H-imidazol-4-yl)propan-2-ol] | 16% | < 100 nM | – | – |
| CC(C)(O)c1cn(-c2ccc(-c3cc(F)c(CO)c(S(C)(=O)=O)c3)cc2F)c(Cc2ccccc2F)n1 [Example 16, 2-(1-(3,3′-difluoro-4′-(hydroxymethyl)-5′-(methylsulfonyl)biphenyl-4-yl)-2-(2-fluorobenzyl)-1H-imidazol-4-yl)propan-2-ol] | 41% | < 100 nM | – | – |
